According to the supplement of paper PMC12463676, “Small-molecule dissolution of stress granules by redox modulation benefits ALS models” (Nature Chemical Biology, 2025):

Experiments:
potassium arsenate = compound: O=[As]([O-])(O)O.[K+] [potassium arsenate]; test: thermal stability z-score vs DMSO; higher = more thermally stabilized by treatment; settings: HeLa; arsenate concentration 1 mM
Method: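 Cellular thermal proteome profiling in HeLa cells treated with 1 mM arsenate for 1 h (DMSO pretreatment), heated to ten temperatures (37-66.3 °C). Soluble protein was quantified by TMT mass spectrometry relative to DMSO controls; the thermal stability score was transformed to a z-score; mean of n = 3 experiments.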

lipoamide = compound: NC(=O)CCCCC1CCSS1 [lipoamide]; test: as above; settings: HeLa, lipoamide concentration 100 µM
Method: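 Cellular thermal proteome profiling in HeLa cells. Cells were treated with 100 µM lipoamide for 1 h, with or without 1 mM arsenate for a further 1 h, then heated to ten temperatures (37-66.3 °C), and soluble protein was quantified by TMT mass spectrometry relative to 0.1% DMSO controls. The thermal stability score (sum of log2 fold changes minus the abundance score) was transformed to a z-score; mean of n = 3 experiments.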

[1] = arsenate co-treatment: 1 mM arsenate 1 h
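Note: each temperature applied for 3 min, abundance score taken as mean log2 fold change at the two lowest temperatures, z-score obtained by mean subtraction and division by SD.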

Sequence of UniProt Q14432 (Q14432 whole entry): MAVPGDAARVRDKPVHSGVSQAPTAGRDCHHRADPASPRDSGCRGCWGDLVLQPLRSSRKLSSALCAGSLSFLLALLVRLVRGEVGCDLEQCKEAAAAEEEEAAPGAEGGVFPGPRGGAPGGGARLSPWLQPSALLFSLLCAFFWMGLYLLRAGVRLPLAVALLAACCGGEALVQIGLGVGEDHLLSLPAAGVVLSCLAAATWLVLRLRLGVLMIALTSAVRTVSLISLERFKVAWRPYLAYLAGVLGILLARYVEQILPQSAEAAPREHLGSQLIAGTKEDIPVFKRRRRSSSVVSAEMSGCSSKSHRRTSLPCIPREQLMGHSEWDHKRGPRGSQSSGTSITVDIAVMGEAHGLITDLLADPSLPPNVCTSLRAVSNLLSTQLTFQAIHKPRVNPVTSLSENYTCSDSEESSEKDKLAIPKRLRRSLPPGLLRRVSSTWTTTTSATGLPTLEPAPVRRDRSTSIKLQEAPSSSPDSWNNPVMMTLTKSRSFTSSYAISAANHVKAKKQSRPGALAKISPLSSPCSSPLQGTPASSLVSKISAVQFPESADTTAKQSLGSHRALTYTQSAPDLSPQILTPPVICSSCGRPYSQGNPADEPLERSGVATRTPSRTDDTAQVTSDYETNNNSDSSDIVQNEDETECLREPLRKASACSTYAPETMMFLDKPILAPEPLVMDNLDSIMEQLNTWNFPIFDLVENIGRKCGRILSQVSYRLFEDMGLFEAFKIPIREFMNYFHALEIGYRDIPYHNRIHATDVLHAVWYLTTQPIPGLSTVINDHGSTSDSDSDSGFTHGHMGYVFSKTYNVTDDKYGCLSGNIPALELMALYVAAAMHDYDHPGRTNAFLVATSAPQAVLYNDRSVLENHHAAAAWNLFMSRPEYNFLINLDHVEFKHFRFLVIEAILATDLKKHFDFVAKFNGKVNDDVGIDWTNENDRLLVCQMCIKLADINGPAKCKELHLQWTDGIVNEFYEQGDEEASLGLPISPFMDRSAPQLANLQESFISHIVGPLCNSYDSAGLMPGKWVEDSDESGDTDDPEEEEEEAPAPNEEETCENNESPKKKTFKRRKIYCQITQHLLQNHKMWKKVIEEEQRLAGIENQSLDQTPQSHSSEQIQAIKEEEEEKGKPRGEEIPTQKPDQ
Sequence of UniProt Q86SE9 (Q86SE9 whole entry): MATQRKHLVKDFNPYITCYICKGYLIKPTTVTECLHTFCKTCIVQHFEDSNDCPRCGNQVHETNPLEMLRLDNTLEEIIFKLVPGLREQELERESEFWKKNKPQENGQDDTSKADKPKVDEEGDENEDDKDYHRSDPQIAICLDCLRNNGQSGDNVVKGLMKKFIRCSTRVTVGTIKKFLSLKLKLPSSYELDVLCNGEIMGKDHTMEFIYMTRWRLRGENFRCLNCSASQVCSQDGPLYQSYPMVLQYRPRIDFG
Sequence of UniProt Q5T2R2 (Q5T2R2 whole entry): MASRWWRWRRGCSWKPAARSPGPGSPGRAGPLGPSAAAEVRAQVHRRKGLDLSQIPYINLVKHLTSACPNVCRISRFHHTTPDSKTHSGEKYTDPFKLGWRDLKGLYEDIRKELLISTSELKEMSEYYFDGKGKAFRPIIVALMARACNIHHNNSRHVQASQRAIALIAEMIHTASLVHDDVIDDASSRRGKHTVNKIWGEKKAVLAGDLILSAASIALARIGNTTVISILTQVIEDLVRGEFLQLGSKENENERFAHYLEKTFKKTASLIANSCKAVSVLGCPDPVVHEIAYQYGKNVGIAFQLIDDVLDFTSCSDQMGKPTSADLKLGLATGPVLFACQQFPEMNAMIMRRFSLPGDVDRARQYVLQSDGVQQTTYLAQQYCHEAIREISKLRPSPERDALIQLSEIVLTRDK
Sequence of UniProt O60658 (O60658 whole entry): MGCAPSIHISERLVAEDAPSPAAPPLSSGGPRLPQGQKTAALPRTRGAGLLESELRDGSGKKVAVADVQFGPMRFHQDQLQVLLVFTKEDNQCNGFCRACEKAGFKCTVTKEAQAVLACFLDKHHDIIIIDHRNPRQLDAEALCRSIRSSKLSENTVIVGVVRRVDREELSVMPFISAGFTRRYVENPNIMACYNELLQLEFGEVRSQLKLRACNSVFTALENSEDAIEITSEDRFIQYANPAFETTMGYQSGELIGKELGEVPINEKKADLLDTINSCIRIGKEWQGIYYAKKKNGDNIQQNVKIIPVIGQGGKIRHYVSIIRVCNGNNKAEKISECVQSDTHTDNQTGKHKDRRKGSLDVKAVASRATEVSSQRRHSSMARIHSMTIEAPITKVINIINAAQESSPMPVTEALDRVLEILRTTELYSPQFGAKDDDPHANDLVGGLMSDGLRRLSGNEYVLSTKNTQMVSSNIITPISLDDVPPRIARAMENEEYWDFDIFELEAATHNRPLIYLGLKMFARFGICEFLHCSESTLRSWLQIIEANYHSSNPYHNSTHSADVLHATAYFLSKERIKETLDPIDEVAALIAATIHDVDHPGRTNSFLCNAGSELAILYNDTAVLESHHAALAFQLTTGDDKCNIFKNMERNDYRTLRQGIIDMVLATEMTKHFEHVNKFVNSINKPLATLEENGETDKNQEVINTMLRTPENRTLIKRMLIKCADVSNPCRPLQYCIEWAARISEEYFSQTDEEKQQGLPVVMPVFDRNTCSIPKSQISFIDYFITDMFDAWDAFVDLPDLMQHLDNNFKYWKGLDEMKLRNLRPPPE
Sequence of UniProt O95263 (O95263 whole entry): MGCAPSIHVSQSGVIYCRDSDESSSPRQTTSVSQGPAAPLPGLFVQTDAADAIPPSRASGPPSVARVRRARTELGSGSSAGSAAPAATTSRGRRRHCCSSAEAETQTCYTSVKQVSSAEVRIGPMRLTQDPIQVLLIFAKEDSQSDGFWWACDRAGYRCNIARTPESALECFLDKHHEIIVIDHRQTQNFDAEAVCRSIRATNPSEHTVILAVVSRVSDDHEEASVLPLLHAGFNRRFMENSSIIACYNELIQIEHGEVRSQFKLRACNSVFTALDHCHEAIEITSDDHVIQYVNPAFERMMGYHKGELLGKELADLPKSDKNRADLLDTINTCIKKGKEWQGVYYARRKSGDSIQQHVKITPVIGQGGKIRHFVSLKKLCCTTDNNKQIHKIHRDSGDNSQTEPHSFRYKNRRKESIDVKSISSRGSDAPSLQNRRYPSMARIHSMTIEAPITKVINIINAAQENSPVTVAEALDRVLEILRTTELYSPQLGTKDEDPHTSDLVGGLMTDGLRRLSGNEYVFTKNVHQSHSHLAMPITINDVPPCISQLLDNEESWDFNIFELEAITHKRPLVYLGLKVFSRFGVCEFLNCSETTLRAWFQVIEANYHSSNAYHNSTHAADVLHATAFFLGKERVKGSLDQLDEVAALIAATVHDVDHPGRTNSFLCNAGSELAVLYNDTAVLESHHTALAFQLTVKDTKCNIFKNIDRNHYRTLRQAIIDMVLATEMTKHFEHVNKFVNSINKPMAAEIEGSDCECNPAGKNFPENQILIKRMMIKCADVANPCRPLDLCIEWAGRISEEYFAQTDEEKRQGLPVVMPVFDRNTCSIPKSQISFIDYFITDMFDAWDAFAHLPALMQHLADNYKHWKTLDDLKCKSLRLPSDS
Sequence of UniProt P61457 (P61457 whole entry): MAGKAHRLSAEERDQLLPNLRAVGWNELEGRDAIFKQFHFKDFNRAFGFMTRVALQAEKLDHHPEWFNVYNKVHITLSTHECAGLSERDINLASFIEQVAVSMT
Sequence of UniProt Q15365 (Q15365 whole entry): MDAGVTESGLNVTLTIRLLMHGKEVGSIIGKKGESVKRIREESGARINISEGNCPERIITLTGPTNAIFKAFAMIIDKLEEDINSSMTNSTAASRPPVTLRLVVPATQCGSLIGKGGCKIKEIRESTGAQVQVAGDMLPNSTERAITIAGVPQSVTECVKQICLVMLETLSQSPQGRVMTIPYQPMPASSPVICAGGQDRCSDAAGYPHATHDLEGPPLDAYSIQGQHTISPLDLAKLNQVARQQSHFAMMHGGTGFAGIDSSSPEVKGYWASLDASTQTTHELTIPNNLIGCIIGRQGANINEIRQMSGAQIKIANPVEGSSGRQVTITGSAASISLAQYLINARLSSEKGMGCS
Sequence of UniProt Q96HC4 (Q96HC4 whole entry): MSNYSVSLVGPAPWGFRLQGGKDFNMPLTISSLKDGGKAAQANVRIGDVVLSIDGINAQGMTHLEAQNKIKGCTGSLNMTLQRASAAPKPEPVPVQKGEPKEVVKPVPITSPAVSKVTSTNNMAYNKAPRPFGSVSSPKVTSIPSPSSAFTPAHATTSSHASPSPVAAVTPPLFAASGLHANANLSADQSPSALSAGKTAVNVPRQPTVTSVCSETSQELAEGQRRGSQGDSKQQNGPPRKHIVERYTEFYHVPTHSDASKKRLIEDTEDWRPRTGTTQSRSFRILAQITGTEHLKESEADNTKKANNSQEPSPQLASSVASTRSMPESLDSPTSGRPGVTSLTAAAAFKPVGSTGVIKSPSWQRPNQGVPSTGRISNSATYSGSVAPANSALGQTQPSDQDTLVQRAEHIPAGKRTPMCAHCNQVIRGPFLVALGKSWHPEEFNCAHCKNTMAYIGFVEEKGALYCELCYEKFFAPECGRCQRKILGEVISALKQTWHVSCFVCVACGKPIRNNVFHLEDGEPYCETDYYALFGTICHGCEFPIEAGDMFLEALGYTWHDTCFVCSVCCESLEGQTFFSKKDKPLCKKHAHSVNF
Sequence of UniProt Q5JVF3 (Q5JVF3 whole entry): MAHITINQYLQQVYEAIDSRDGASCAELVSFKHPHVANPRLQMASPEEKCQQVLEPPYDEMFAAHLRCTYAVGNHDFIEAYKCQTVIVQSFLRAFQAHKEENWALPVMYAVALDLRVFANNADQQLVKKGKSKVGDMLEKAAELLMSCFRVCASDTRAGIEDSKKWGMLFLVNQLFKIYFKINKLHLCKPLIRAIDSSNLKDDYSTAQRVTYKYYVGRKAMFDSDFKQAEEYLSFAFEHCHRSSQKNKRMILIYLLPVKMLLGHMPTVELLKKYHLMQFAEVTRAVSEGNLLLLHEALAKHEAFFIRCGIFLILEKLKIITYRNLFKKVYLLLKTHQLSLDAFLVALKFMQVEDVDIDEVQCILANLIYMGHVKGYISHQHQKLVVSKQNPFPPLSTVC

Target	thermal stability z-score (potassium arsenate)	thermal stability z-score (lipoamide; [1])	thermal stability z-score (lipoamide; arsenate co-treatment: none)
PBK (UniProt Q96KB5)	0.533	-0.583	-0.307
PBLD (UniProt P30039)	-0.578	-0.0252	-0.218
PBXIP1 (UniProt Q96AQ6)	-0.357	-3.02	-2.69
PC (UniProt P11498)	-0.574	-0.429	-0.205
PCBD1 (UniProt P61457)	0.213	0.499	0.492
PCBP1 (UniProt Q15365)	-1.31	-0.057	0.0883
PCBP2 (UniProt Q15366)	0.141	-0.426	-0.239
PCCA (UniProt P05165)	-0.314	0.202	0.198
PCCB (UniProt P05166)	-0.873	0.673	-0.198
PCF11 (UniProt O94913)	-0.0822	-0.0765	-0.00889
PCGF5 (UniProt Q86SE9)	-0.181	0.0387	0.0817
PCID2 (UniProt Q5JVF3)	0.809	-0.297	0.217
PCIF1 (UniProt Q9H4Z3)	-0.0419	0.0909	0.207
PCK2 (UniProt Q16822)	0.352	-0.107	-0.0889
PCLO (UniProt Q9Y6V0)	-0.0814	0.448	0.235
PCM1 (UniProt Q15154)	0.131	-0.0188	-0.104
PCMT1 (UniProt P22061)	0.245	0.993	0.908
PCNA (UniProt P12004)	1.56	0.353	-0.0687
PCNP (UniProt Q8WW12)	0.289	0.549	0.442
PCNT (UniProt O95613)	0.281	-0.505	0.496
PCSK9 (UniProt Q8NBP7)	0.0738	-0.578	-0.462
PCYOX1 (UniProt Q9UHG3)	0.0412	0.606	-0.723
PCYT1A (UniProt P49585)	1.78	0.0432	0.294
PCYT2 (UniProt Q99447)	-0.938	0.0344	-0.0669

Target	thermal stability z-score (potassium arsenate)	thermal stability z-score (lipoamide; [1])	thermal stability z-score (lipoamide; arsenate co-treatment: none)
PDAP1 (UniProt Q13442)	-0.0329	0.179	0.298
PDCD2 (UniProt Q16342)	-0.371	-0.0711	-0.181
PDCD2L (UniProt Q9BRP1)	-0.161	0.275	0.139
PDCD4 (UniProt Q53EL6)	-0.0393	-0.493	-0.0889
PDCD5 (UniProt O14737)	0.417	1.01	0.727
PDCD6 (UniProt O75340)	0.623	1.77	0.818
PDCD6IP (UniProt Q8WUM4)	2.4	1.3	1.06
PDCD10 (UniProt Q9BUL8)	0.151	0.00718	-0.0724
PDCD11 (UniProt Q14690)	-0.125	-0.0446	-0.334
PDCL3 (UniProt Q9H2J4)	-0.174	-0.0813	0.0164
PDCL (UniProt Q13371)	-0.321	1.05	0.207
PDDC1 (UniProt Q8NB37)	-2.18	0.604	-0.174
PDE1A (UniProt P54750)	1.05	0.864	1.23
PDE2A (UniProt O00408)	-0.355	-0.284	0.382
PDE3A (UniProt Q14432)	-0.555	0.363	0.131
PDE4D (UniProt Q08499)	0.101	0.651	0.623
PDE4DIP (UniProt Q5VU43)	-0.0411	0.0302	-0.0224
PDE6D (UniProt O43924)	0.912	0.899	0.515
PDE8A (UniProt O60658)	0.167	0.244	0.225
PDE8B (UniProt O95263)	0.228	-0.563	0.202
PDE12 (UniProt Q6L8Q7)	-0.746	0.274	0.272
PDF (UniProt Q9HBH1)	-0.495	-0.494	-0.231
PDHA1 (UniProt P08559)	-2.51	0.0392	0.295
PDHB (UniProt P11177)	-2.38	0.134	0.282

Target	thermal stability z-score (potassium arsenate)	thermal stability z-score (lipoamide; [1])	thermal stability z-score (lipoamide; arsenate co-treatment: none)
PDHX (UniProt O00330)	-6.67	-0.515	-0.468
PDIA3 (UniProt P30101)	0.907	-3.75	-2.98
PDIA4 (UniProt P13667)	0.648	-2.99	-2.13
PDIA5 (UniProt Q14554)	0.611	-3.58	-2.41
PDIA6 (UniProt Q15084)	0.475	-2.44	-1.84
PDK1 (UniProt Q15118)	0.836	0.35	-0.0874
PDK2 (UniProt Q15119)	0.0862	0.292	0.0166
PDLIM1 (UniProt O00151)	-0.239	0.156	0.134
PDLIM2 (UniProt Q96JY6)	-0.0521	-0.719	-0.463
PDLIM5 (UniProt Q96HC4)	-2.23	-0.252	-0.371
PDLIM7 (UniProt Q9NR12)	-1.12	-0.856	-0.95
PDP1 (UniProt Q9P0J1)	-0.0616	0.0374	-0.191
PDPK1 (UniProt O15530)	0.451	0.174	0.131
PDPR (UniProt Q8NCN5)	-0.181	0.399	0.429
PDRG1 (UniProt Q9NUG6)	0.203	0.0914	-0.238
PDS5A (UniProt Q29RF7)	-0.428	0.543	0.408
PDS5B (UniProt Q9NTI5)	-0.362	0.839	0.426
PDSS1 (UniProt Q5T2R2)	0.423	0.272	0.466
PDSS2 (UniProt Q86YH6)	-0.169	0.66	0.484
PDXDC1 (UniProt Q6P996)	0.73	-0.964	-0.497
PDXK (UniProt O00764)	-0.829	-0.427	-0.245
PDXP (UniProt Q96GD0)	-0.658	0.0465	0.133
PDZD8 (UniProt Q8NEN9)	0.123	-0.155	0.291
